What was measured:
[1] = system: ICRAC in human Jurkat T cells; assay: Whole-cell patch clamp, inhibition of ICRAC current in Jurkat T cells; assay type: cell-based
Description: Patch clamp experiments were performed in the tight-seal whole-cell configuration at 21-25° C. High resolution current recordings were acquired by a computer-based patch clamp amplifier system (EPC-9, HEKA, Lambrecht, Germany). Patch pipettes had resistances between 2-4 MΩ after filling with the standard intracellular solution. Immediately following establishment of the whole-cell configuration, voltage ramps of 50-200 ms duration spanning the voltage range of −100 to +100 mV were delivered at a rate of 0.5 Hz over a period of 300-400 seconds. […] Capacitive currents and series resistance were determined and corrected before each voltage ramp using the automatic capacitance compensation of the EPC-9. The low resolution temporal development of membrane currents was assessed by extracting the current amplitude at −80 mV or +80 mV from individual ramp current records.
In general, a whole cell patch clamp method was used to examine the effects of a compound of the invention on a channel that mediates Icrac. […] Then a compound to be tested was perfused (or puffed) to cells in the external solution and the effect of the compound on Icrac was measured. […]
Patch-clamp experiments were performed in the tight-seal whole-cell configuration at 21-25° C. […] Capacitive currents and series resistance were determined and corrected before each voltage ramp using the automatic capacitance compensation of the EPC-9. […]

[2] = system: degranulation in RBL cells; assay: Inhibition of degranulation in RBL cells; assay type: cell-based; conditions: Rattus norvegicus, anti-DNP IgE, read-out: IC50 (concentration which inhibits 50% of degranulation in RBL cells)
Description: The day before the assay was performed, RBL cells, that had been grown to confluence in a 96 well plate, were incubated at 37° C. for at least 2 hours. The medium was replaced in each well with 100 μL of fresh medium containing […] of anti-DNP IgE.
On the following day, the cells were washed once with PRS (2.6 mM glucose and 0.1% BSA) and 160 μL of PRS was added to each well. A test compound was added to a well in a 20 μL solution at 10× of the desired concentration and incubated for 20 to 40 minutes at 37° C. 20 μL of 10× mouse anti-IgE ([…]) was added. Maximum degranulation occurred between 15 to 40 minutes after addition of anti-IgE.

IL-2 production = assay: Inhibition of IL-2 production in PHA-activated Jurkat cells (ELISA); assay type: cell-based, human; conditions: Homo sapiens, Jurkat, 20 h, Jurkat cells, PHA 2.5 μg/mL, 20 hours, IL-2 ELISA; read-out: IC50 (inhibition of IL-2 production)
Description: Jurkat cells were placed in a 96 well plate (0.5 million cells per well in 1% FBS medium) then a test compound of this invention was added at different concentrations. After 10 minutes, the cells were activated with PHA (final concentration 2.5 μg/mL) and incubated for 20 hours at 37° C. under CO2. The final volume was 200 μL. Following incubation, the cells were centrifuged and the supernatants collected and stored at −70° C. prior to assaying for IL-2 production. A commercial ELISA kit (IL-2 Eli-pair, Diaclone Research, Besancon, France) was used to detect production of IL-2, from which dose response curves were obtained. The IC50 value was calculated as the concentration at which 50% of maximum IL-2 production after stimulation was inhibited versus a non-stimulation control.

[3] = system: chemotactic response of human T cells to MIP-1α; assay: T cell chemotaxis (cell migration) assay, human T cells; assay type: cell-based; conditions: 100 ng/ml MIP-1α, FIG. 1
Description: (§1) Twenty ml aliquots of heparinized whole blood (2 pig, 1 human) were subjected to density gradient centrifugation on Ficoll Hypaque. The buffy coat layers representing peripheral blood mononuclear cells (PBMCs) containing lymphocytes and monocytes were washed once, resuspended in 12 ml of incomplete RPMI 1640 and then placed in gelatin-coated T75 culture flasks for 1 hr at 37° C. The non-adherent cells, representing peripheral blood lymphocytes (PBLs) depleted of monocytes, were resuspended in complete RPMI media and placed in loosely packed activated nylon wool columns that had been equilibrated with warm media. After 1 hr at 37° C., the non-adherent T cell populations were eluted by washing of the columns with additional media. The T cell preparations were centrifuged, resuspended in 5 ml of incomplete RPMI, and counted using a hemocytometer.
(§2) Aliquots of each T cell preparation were labeled with Calcien AM (TefLabs) and suspended at a concentration of 2.4×10^6/ml in HEPES-buffered Hank's Balanced Salt Solution containing 1.83 mM CaCl2 and 0.8 mM MgCl2, pH 7.4 (HHBSS). […] The chemotaxis units were then placed in a CytoFlour 4000 (PerSeptive BioSystems) and the fluorescence of each well measured (excitation and emission wavelengths of 450 and 530 nm, respectively). […]

[4] = system: chemotactic response of porcine T cells to MIP-1α; assay: T cell chemotaxis (cell migration) assay, porcine T cells; assay type: cell-based, pig; conditions: Sus scrofa, 10 ng/ml MIP-1α, 2 hr migration, averages of triplicates, read-out: IC50, inhibition of chemotactic response of porcine T cells
Description: as §1, §2

IC50 [2]: 2520 nM
IC50 (IL-2 production): 2 to 4 nM
IC50 [4]: ~5 nM
Compound: COC(=O)c1ccc(C)c(-c2ccc(NC(=O)c3c(F)cccc3F)cc2)c1 [Compound 1, 4′-(2,6-Difluoro-benzoylamino)-6-methyl-biphenyl-3-carboxylic acid methyl ester]
Inhibition of ICRAC in human Jurkat T cells [1]: strong inhibitor
Inhibition of chemotactic response of human T cells [3]: inhibitory
